The source of these data is ChEMBL document CHEMBL1255378, “Emergence of the plasmid-mediated quinolone resistance gene qnrS1 in Escherichia coli isolates in Greece” (2008).

The test system of assay [1] is Escherichia coli. Briefly: Antimicrobial activity against qnrS1-positive multidrug-resistant Escherichia coli isolate 9 expressing gyrA S83L/D87N and parC S80I mutants by Etest.
Assay [2] has as its system Escherichia coli. Briefly: Antimicrobial activity against qnrS1-positive multidrug-resistant Escherichia coli isolate 3 expressing beta-lactamase CTX-M-15, gyrA S83L/D87N and parC S80I mutant by Etest.
Assay [3] concerns Escherichia coli. Briefly: Antimicrobial activity against qnrS1-positive ampicillin-resistant Escherichia coli isolate 8 expressing gyrA S83L/D87N and parC S80I mutants by Etest.
The test system of assay [4] is Escherichia coli. As to the kind of experiment: Antimicrobial activity against qnrS1-positive ampicillin-resistant Escherichia coli isolate 7 expressing gyrA S83L/D87N and parC S80I mutants by Etest.
Assay [5] deals with Escherichia coli. Briefly: Antimicrobial activity against qnrS1-positive multidrug-resistant Escherichia coli isolate 10 expressing gyrA S83L/D87N and parC S80I mutants by Etest.
In assay [6] the test system is Escherichia coli. Briefly: Antimicrobial activity against Escherichia coli harboring plasmid carrying qnrS1 gene by Etest.
Assay [7] deals with Escherichia coli. Briefly: Antimicrobial activity against qnrS1-positive multidrug-resistant Escherichia coli isolate 4 expressing gyrA S83L/D87N and parC S80I mutants by Etest.
Assay [8] concerns Escherichia coli. Briefly: Antimicrobial activity against qnrS1-positive ampicillin and amoxicillin-resistant Escherichia coli isolate 6 expressing gyrA S83L/D87N and parC S80I mutants by Etest.

Values after ≈ are worked out from the molar mass of the structure shown.

The term MIC denotes the least concentration at which growth counts as inhibited. As to `O=C(O)c1cn(C2CC2)c2cc(N3CCNCC3)c(F)cc2c1=O` [CIPROFLOXACIN], the MIC in assay [1] was 128 µg/mL (≈ 386 µM); in assay [2], 64 µg/mL (≈ 193 µM); in assay [3], 128 µg/mL (≈ 386 µM); in assay [4] it was 128 µg/mL (≈ 386 µM); in assay [5] it was 128 µg/mL (≈ 386 µM); in assay [6], 0.032 µg/mL (≈ 0.0966 µM). Moreover, the MIC in assay [7] and in assay [8] was 64 µg/mL (≈ 193 µM) in each case.
